From ChEMBL document CHEMBL3885881, “DrugMatrix”

Species: Rattus norvegicus
Assay: DrugMatrix - Regimen: Daily Repeat
Type: toxicity, organism-based, Sprague-Dawley
Set-up: regimen Daily Repeat, gender Male, age 6-8 weeks
Conditions: in vivo, po, route oral GAVAGE, vehicle .5 % CMC; for ABSOLUTE BASOPHIL / BASOPHIL / EOSINOPHIL / ERYTHROCYTE COUNT / HEMATOCRIT / HEMOGLOBIN / LEUKOCYTE COUNT / LYMPHOCYTE / MEAN CORPUSCULAR HEMOGLOBIN / MEAN CORPUSCULAR HEMOGLOBIN CONCENTRATION / MEAN CORPUSCULAR VOLUME / MONOCYTE / NEUTROPHIL / PLATELET COUNT: tissue Blood; for ALANINE AMINOTRANSFERASE / ALBUMIN / ALKALINE PHOSPHATASE / ASPARTATE AMINOTRANSFERASE / BLOOD UREA NITROGEN / CHLORIDE / CHOLESTEROL / CREATINE PHOSPHOKINASE / CREATININE / GLUCOSE / PHOSPHORUS / POTASSIUM / SODIUM / TOTAL BILIRUBIN / TOTAL PROTEIN: tissue Plasma
[1] = 100 mg/kg, 120 h, dose level Low, time 5 day
[2] = 390 mg/kg, 72 h, dose level High, time 3 day
[3] = 390 mg/kg, 120 h, dose level High, time 5 day

`CC[C@]1(O)CC[C@H]2[C@@H]3CCC4=CCCC[C@@H]4[C@H]3CC[C@@]21C` was tested. Which ABSOLUTE BASOPHIL [1] did it give?
The ABSOLUTE BASOPHIL was 56.7 cells/µL.

What about the BASOPHIL [1] of the same molecule?
The BASOPHIL was 0.47%.

And the EOSINOPHIL [1]?
Its EOSINOPHIL is 0.23%.

What about the “ERYTHROCYTE COUNT” value [1] of the same molecule?
The value was 6.95 x10E6/uL.

And the HEMATOCRIT [1]?
The HEMATOCRIT was 44.83%.

What about the HEMOGLOBIN [1] of the same molecule?
The HEMOGLOBIN was 14.17 G/DL.

What about the “LEUKOCYTE COUNT” value [1] of the same molecule?
Its value is 12.16 x10E3/uL.

What about the LYMPHOCYTE [1] of the same molecule?
Its LYMPHOCYTE is 86.2%.

And the “MEAN CORPUSCULAR HEMOGLOBIN” value [1]?
Its value is 20.37 pg.

And the “MEAN CORPUSCULAR HEMOGLOBIN CONCENTRATION” value [1]?
Its value is 31.6 G/DL.

And the “MEAN CORPUSCULAR VOLUME” value [1]?
Its value is 64.47 fL.

And the MONOCYTE [1]?
Its MONOCYTE is 2%.

What about the NEUTROPHIL [1] of the same molecule?
The NEUTROPHIL was 10.03%.

And the “PLATELET COUNT” value [1]?
The value was 1290.67 x10E3/uL.

What about the “ALANINE AMINOTRANSFERASE” value [1] of the same molecule?
Its value is 38.67 u/L.

And the ALBUMIN [1]?
Its ALBUMIN is 3.67 G/DL.

What about the “ALKALINE PHOSPHATASE” value [1] of the same molecule?
Its value is 360 u/L.

And the “ASPARTATE AMINOTRANSFERASE” value [1]?
The value was 55 u/L.

And the “BLOOD UREA NITROGEN” value [1]?
Its value is 10.67 mg/dL.

And the CHLORIDE [1]?
The CHLORIDE was 99 MEQ/L.

And the CHOLESTEROL [1]?
Its CHOLESTEROL is 42 mg/dL.

And the “CREATINE PHOSPHOKINASE” value [1]?
Its value is 164 u/L.

What about the CREATININE [1] of the same molecule?
Its CREATININE is 0.2 mg/dL.

And the GLUCOSE [1]?
The GLUCOSE was 173.33 mg/dL.

What about the PHOSPHORUS [1] of the same molecule?
The PHOSPHORUS was 12.6 mg/dL.

And the POTASSIUM [1]?
Its POTASSIUM is 7.33 MEQ/L.

What about the SODIUM [1] of the same molecule?
Its SODIUM is 147 MEQ/L.

What about the “TOTAL BILIRUBIN” value [1] of the same molecule?
Its value is 0.33 mg/dL.

What about the “TOTAL PROTEIN” value [1] of the same molecule?
Its value is 6.1 G/DL.

What about the ABSOLUTE BASOPHIL [2] of the same molecule?
Its ABSOLUTE BASOPHIL is 36.7 cells/µL.

What about the BASOPHIL [2] of the same molecule?
The BASOPHIL was 0.27%.

What about the EOSINOPHIL [2] of the same molecule?
The EOSINOPHIL was 0.43%.

And the “ERYTHROCYTE COUNT” value [2]?
Its value is 7 x10E6/uL.

And the HEMATOCRIT [2]?
Its HEMATOCRIT is 42.77%.

What about the HEMOGLOBIN [2] of the same molecule?
Its HEMOGLOBIN is 14.3 G/DL.

And the “LEUKOCYTE COUNT” value [2]?
Its value is 13.01 x10E3/uL.

What about the LYMPHOCYTE [2] of the same molecule?
The LYMPHOCYTE was 77.23%.

What about the “MEAN CORPUSCULAR HEMOGLOBIN” value [2] of the same molecule?
The value was 20.43 pg.

And the “MEAN CORPUSCULAR HEMOGLOBIN CONCENTRATION” value [2]?
Its value is 33.43 G/DL.

What about the “MEAN CORPUSCULAR VOLUME” value [2] of the same molecule?
The value was 61.2 fL.

What about the MONOCYTE [2] of the same molecule?
Its MONOCYTE is 2.47%.

What about the NEUTROPHIL [2] of the same molecule?
Its NEUTROPHIL is 18%.

What about the “PLATELET COUNT” value [2] of the same molecule?
The value was 1291 x10E3/uL.

And the “ALANINE AMINOTRANSFERASE” value [2]?
The value was 42.67 u/L.

What about the ALBUMIN [2] of the same molecule?
The ALBUMIN was 3.6 G/DL.

What about the “ALKALINE PHOSPHATASE” value [2] of the same molecule?
The value was 336.67 u/L.

And the “ASPARTATE AMINOTRANSFERASE” value [2]?
The value was 63.33 u/L.

What about the “BLOOD UREA NITROGEN” value [2] of the same molecule?
Its value is 11.33 mg/dL.

And the CHLORIDE [2]?
Its CHLORIDE is 102.33 MEQ/L.

What about the CHOLESTEROL [2] of the same molecule?
Its CHOLESTEROL is 36.33 mg/dL.

What about the “CREATINE PHOSPHOKINASE” value [2] of the same molecule?
The value was 193 u/L.

And the CREATININE [2]?
The CREATININE was 0.4 mg/dL.

And the GLUCOSE [2]?
Its GLUCOSE is 166 mg/dL.

What about the PHOSPHORUS [2] of the same molecule?
The PHOSPHORUS was 11.2 mg/dL.

What about the POTASSIUM [2] of the same molecule?
Its POTASSIUM is 6.37 MEQ/L.

And the SODIUM [2]?
Its SODIUM is 145.67 MEQ/L.

And the “TOTAL BILIRUBIN” value [2]?
The value was 0.63 mg/dL.

What about the “TOTAL PROTEIN” value [2] of the same molecule?
The value was 5.87 G/DL.

And the ABSOLUTE BASOPHIL [3]?
Its ABSOLUTE BASOPHIL is 200 cells/µL.

And the BASOPHIL [3]?
Its BASOPHIL is 1.57%.

And the EOSINOPHIL [3]?
The EOSINOPHIL was 0.97%.

What about the “ERYTHROCYTE COUNT” value [3] of the same molecule?
The value was 8.29 x10E6/uL.

And the HEMATOCRIT [3]?
Its HEMATOCRIT is 52.23%.

What about the HEMOGLOBIN [3] of the same molecule?
Its HEMOGLOBIN is 16.3 G/DL.

What about the “LEUKOCYTE COUNT” value [3] of the same molecule?
The value was 13.36 x10E3/uL.

What about the LYMPHOCYTE [3] of the same molecule?
The LYMPHOCYTE was 79.5%.

What about the “MEAN CORPUSCULAR HEMOGLOBIN” value [3] of the same molecule?
Its value is 19.77 pg.

What about the “MEAN CORPUSCULAR HEMOGLOBIN CONCENTRATION” value [3] of the same molecule?
The value was 31.27 G/DL.

What about the “MEAN CORPUSCULAR VOLUME” value [3] of the same molecule?
Its value is 63.17 fL.

What about the MONOCYTE [3] of the same molecule?
The MONOCYTE was 1.77%.

And the NEUTROPHIL [3]?
Its NEUTROPHIL is 14.97%.

What about the “PLATELET COUNT” value [3] of the same molecule?
Its value is 1359.67 x10E3/uL.

And the “ALANINE AMINOTRANSFERASE” value [3]?
Its value is 31 u/L.

And the ALBUMIN [3]?
Its ALBUMIN is 4.13 G/DL.

And the “ALKALINE PHOSPHATASE” value [3]?
The value was 287.67 u/L.

What about the “ASPARTATE AMINOTRANSFERASE” value [3] of the same molecule?
The value was 54.67 u/L.

What about the “BLOOD UREA NITROGEN” value [3] of the same molecule?
The value was 14 mg/dL.

What about the CHLORIDE [3] of the same molecule?
The CHLORIDE was 104.33 MEQ/L.

What about the CHOLESTEROL [3] of the same molecule?
The CHOLESTEROL was 60 mg/dL.

What about the “CREATINE PHOSPHOKINASE” value [3] of the same molecule?
Its value is 166 u/L.

What about the CREATININE [3] of the same molecule?
The CREATININE was 0.37 mg/dL.

What about the GLUCOSE [3] of the same molecule?
Its GLUCOSE is 151.33 mg/dL.

What about the PHOSPHORUS [3] of the same molecule?
The PHOSPHORUS was 11.3 mg/dL.

What about the POTASSIUM [3] of the same molecule?
The POTASSIUM was 7 MEQ/L.

What about the SODIUM [3] of the same molecule?
The SODIUM was 155 MEQ/L.

And the “TOTAL BILIRUBIN” value [3]?
The value was 0.4 mg/dL.

What about the “TOTAL PROTEIN” value [3] of the same molecule?
Its value is 7.07 G/DL.
